From patent US10738028B2, “Spiro three-membered ring, spiro five-membered ring peptide deformylase inhibitor and use thereof in antibacteria and anti-tumor” (priority 2016, dated 2020)

Experiments:
Assay type in all cases: cell-based
[1] = test system: Enterococcus faecalis (EFA); experiment: MIC, two-fold agar dilution (CLSI), clinical isolates
Method in brief: (§1)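 Following the American Clinical and Laboratory Standards Institute procedure, agar two-fold dilution served to determine minimum inhibitory concentrations.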

[2] = test system: Enterococcus faecium (EFM); experiment: as above
Method in brief: as §1

[3] = test system: Escherichia coli (including ESBLs, non-ESBLs); experiment: as above
Method in brief: as §1

[4] = test system: Moraxella catarrhalis (BCA); experiment: as above
Method in brief: as §1

[5] = test system: Streptococcus pneoumoniae (SPN); experiment: as above; details: strain SPN 16-4
Method in brief: as §1

[6] = test system: methicillin-resistant Staphylococcus aureus (MRSA); experiment: as above
Method in brief: as §1

[7] = test system: methicillin-resistant Staphylococcus epidermidis (MRSE); experiment: as above
Method in brief: as §1

[8] = test system: methicillin-sensitive Staphylococcus aureus (MSSA); experiment: as above
Method in brief: as §1

[9] = test system: methicillin-sensitive Staphylococcus epidermidis (MSSE); experiment: as above
Method in brief: as §1

[10] = test system: HCT-116 colorectal cancer cell line; experiment: CCK-8 proliferation inhibition; details: 72 hours, CCK-8
Method in brief: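 Growth inhibition is read by CCK-8 (1:10 dilution) after 72 h of compound exposure. HCT-116 cells grow in McCoy's 5A containing 10% newborn bovine serum at 2000 cells/well, with 1‰ DMSO as vehicle control.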

[11] = test system: A549 lung cancer cell line; experiment: CCK-8 proliferation inhibition; details: Homo sapiens
From the text: (§2) 2. The present invention adopts the CCK-8 method to determine the proliferation inhibition effect of the spiro three-membered ring, spiro five-membered ring peptide deformylase inhibitor as described in Examples 1-80 against colorectal cancer cells, lung cancer cells, gastric cancer cells, liver cancer cells, and the like. […] The compound having the best activity synthesized in Example 64 was further tested for its inhibitory activity against other tumor cells including T cell leukemia, acute myeloid leukemia, cervical cancer, breast cancer, prostate cancer and osteosarcoma, and the like (see Table 7).
(§3) (1) HCT-116 colorectal cancer cell line, A549 lung cancer cell line, MGC-803 gastric cancer cell line, BEL-7402 liver cancer cell line, Jurkat T cell leukemia cell line, HL60 acute myeloid leukemia cell line, Hela cervical cancer cell line, MCF-7 breast cancer cell line, PC3 prostate cancer cell line and SAOS-2 osteosarcoma cell line were made into single cell suspension, 180 μL of which was inoculated into 96-well culture plate, which was cultured overnight in CO2 incubator (37° C., 5% CO2, 95% air).
(§4) (2) Each of the spiro three-membered ring, spiro five membered ring peptide deformylase inhibitors was dissolved in DMSO, and was further formulated into drug solution with required different final concentration using corresponding cell culture medium. The drug solutions were added to the above cells respectively (20 μL/well), with the control group added with 1‰ DMSO, and cultured in a CO2 incubator for 72 hours.
(§5) (3) After incubation for 72 hours, the culture solution was decanted, and 100 μL of 1:10 diluted CCK-8 solution was added.
(§6) Wherein, in step (1), the concentration of the single cell suspension was 2000 cells/well.
(§7) Wherein, in step (2), HCT-116 cells were cultured in McCoy's 5A medium (containing 10% newborn bovine serum, 1% double antibody); A549 and PC3 cells were cultured in F12 medium (containing 10% newborn bovine serum, 1% double antibody); MGC-803, BEL-7402, SAOS-2, Jurkat and HL60 cells were cultured in 1640 medium (containing 10% newborn bovine serum, 1% double antibody); and MCF-7 and Hela cells were cultured in DMEM high glucose medium (containing 10% newborn bovine serum, 1% double antibody).

[12] = test system: BEL-7402 liver cancer cell line; experiment: CCK-8 proliferation inhibition
From the text: as §2, §3, §4, §5, §6, §7

[13] = test system: MGC-803 gastric cancer cell line; experiment: CCK-8 proliferation inhibition
From the text: as §2, §3, §4, §5, §6, §7

[14] = concentration of 30 μM, 72 hours, 30 µM

Cc1cnc(NC(=O)[C@@H]2CC3(CC3)CN2C(=O)[C@H](CC2CCCC2)CN(O)C=O)s1 [Example 29, (S)-5-((R)-3-cyclopentylmethyl-2-((N-hydroxyformamido)methyl)propionyl)-N-(5-methylthiazol-2-yl)-5-spiro[2.4]heptane-6-carboxamide]
94%: HCT116 inhibition rate/% ([10]; concentration of 30 μM, 30 µM)
8.96 µM: IC50 ([10]; Homo sapiens, HCT-116)
36%: inhibition at 30 µM ([11]; A549, 72 h, concentration of 30 μM)
0.5 µg/mL: MIC (anti-bacterial activity) ([2]; strain EFM 15-3) | MIC (anti-bacterial activity) ([4]; strain BCA 14-1) | MIC (anti-bacterial activity) ([4]; strain BCA 14-4)
79%: Inhibition of proliferation, Liver cancer BEL-7402 [12, 14]
0.06 µg/mL: MIC (anti-bacterial activity) ([6]; strain MRSA 15-3) | MIC (anti-bacterial activity) ([7]; strain MRSE 15-1) | MIC (anti-bacterial activity) ([9]; strain MSSE 15-6)
7.84 µM: IC50 ([13]; Homo sapiens, MGC-803, 72 hours)
0.25 µg/mL: Anti-bacterial activity (MIC), strain BCA 14-10 ([4]; clinical isolate BCA 14-10) | MIC (anti-bacterial activity) ([4]; strain BCA 14-6) | MIC (anti-bacterial activity) ([4]; strain BCA 14-8)
1 µg/mL: MIC (anti-bacterial activity) ([1]; strain EFA 15-3) | MIC (anti-bacterial activity) ([2]; strain EFM 15-1) | MIC (anti-bacterial activity) ([2]; strain EFM 15-2) | MIC (anti-bacterial activity) ([2]; strain EFM 15-4) | MIC (anti-bacterial activity) ([2]; strain EFM 15-5) | MIC (anti-bacterial activity) ([2]; strain EFM 15-6)
16 µg/mL: MIC (anti-bacterial activity) ([3]; strain ECO+ 15-1) | MIC (anti-bacterial activity) ([3]; strain ECO+ 15-3) | MIC (anti-bacterial activity) ([3]; strain ECO+ 15-4) | MIC (anti-bacterial activity) ([3]; strain ECO− 15-1) | MIC (anti-bacterial activity) ([3]; strain ECO− 15-2) | MIC (anti-bacterial activity) ([3]; strain ECO− 15-4)
7.57 µM: IC50 ([12]; Homo sapiens, Bel-7402, 72 hours)
4 µg/mL: MIC (anti-bacterial activity) ([1]; strain EFA 15-1) | MIC (anti-bacterial activity) ([1]; strain EFA 15-2) | MIC (anti-bacterial activity) ([1]; strain EFA 15-4) | MIC (anti-bacterial activity) ([1]; strain EFA 15-5) | MIC (anti-bacterial activity) ([1]; strain EFA 15-6) | MIC (anti-bacterial activity) [5]
13.6 µM: IC50 ([11]; A549, 72 hours)
32 µg/mL: MIC (anti-bacterial activity) ([3]; strain ECO+ 15-2) | MIC (anti-bacterial activity) ([3]; strain ECO− 15-3)
0.125 µg/mL: MIC (anti-bacterial activity) ([4]; strain BCA 14-5) | MIC (anti-bacterial activity) ([4]; strain BCA 14-7) | MIC (anti-bacterial activity) ([6]; strain MRSA 15-1) | MIC (anti-bacterial activity) ([6]; strain MRSA 15-2) | MIC (anti-bacterial activity) ([6]; strain MRSA 15-4) | MIC (anti-bacterial activity) ([7]; strain MRSE 15-2) | MIC (anti-bacterial activity) ([7]; strain MRSE 15-3) | MIC (anti-bacterial activity) ([7]; strain MRSE 15-7) | MIC (anti-bacterial activity) ([8]; strain MSSA 15-3) | MIC (anti-bacterial activity) ([8]; strain MSSA 15-4) | MIC (anti-bacterial activity) ([8]; strain MSSA 15-5) | MIC (anti-bacterial activity) ([8]; strain MSSA 15-6) | MIC (anti-bacterial activity) ([9]; strain MSSE 15-3) | MIC (anti-bacterial activity) ([9]; strain MSSE 15-4) | MIC (anti-bacterial activity) ([9]; strain MSSE 15-5)
2 µg/mL: MIC (anti-bacterial activity) ([1]; strain EFA 15-9)
78%: Inhibition of proliferation, Gastric cancer MGC-803 [13, 14]
